SMILES strings stand for the structures.

For the first experiment, the system named is A-431. The experiment in a line: cells. To be noted: Homo sapiens. The class given is functional, cell-based.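 Also: growth inhibition of A-431 cells, determined with a cell viability read-out.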
Description: SANGER: Inhibition of human A431 cell growth in a cell viability assay.
A word on the IC50: it is the concentration at which inhibition is half-maximal. Higher therefore signals weaker potency. The compound `CC1(C)CCC(c2ccc(Cl)cc2)=C(CN2CCN(c3ccc(C(=O)NS(=O)(=O)c4ccc(N[C@H](CCN5CCOCC5)CSc5ccccc5)c(S(=O)(=O)C(F)(F)F)c4)cc3)CC2)C1` [NAVITOCLAX] returned an IC50 above 2000 nM.

Another experiment relates to UMC-11. Briefly: cells. Format: functional, cell-based. To be noted: Homo sapiens.
Description: SANGER: Inhibition of human UMC-11 cell growth in a cell viability assay.
In the case of `CC1(C)CCC(c2ccc(Cl)cc2)=C(CN2CCN(c3ccc(C(=O)NS(=O)(=O)c4ccc(N[C@H](CCN5CCOCC5)CSc5ccccc5)c(S(=O)(=O)C(F)(F)F)c4)cc3)CC2)C1` [NAVITOCLAX], the IC50 was above 2000 nM.

The test system of another experiment is MKN-28. The experiment in a line: cells. The settings on record: Homo sapiens. The class given is functional, cell-based.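 Also: cell viability assay read-out, IC50 reflects suppression of growth of human MKN-28 cells.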
Description: SANGER: Inhibition of human MKN28 cell growth in a cell viability assay.
Turning to `CC1(C)CCC(c2ccc(Cl)cc2)=C(CN2CCN(c3ccc(C(=O)NS(=O)(=O)c4ccc(N[C@H](CCN5CCOCC5)CSc5ccccc5)c(S(=O)(=O)C(F)(F)F)c4)cc3)CC2)C1` [NAVITOCLAX], the IC50 was above 2000 nM.

In the next experiment the test system is NCI-H28. The experiment in a line: cells. The settings on record: Homo sapiens. Format: functional, cell-based.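 Also: growth inhibition of human NCI-H28 cells, read out as cell viability.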
Description: SANGER: Inhibition of human NCI-H28 cell growth in a cell viability assay.
On to `CC1(C)CCC(c2ccc(Cl)cc2)=C(CN2CCN(c3ccc(C(=O)NS(=O)(=O)c4ccc(N[C@H](CCN5CCOCC5)CSc5ccccc5)c(S(=O)(=O)C(F)(F)F)c4)cc3)CC2)C1` [NAVITOCLAX], for which the IC50 was above 2000 nM.

The subject of the next experiment is MHH-ES-1. The experiment in a line: cells. The settings on record: Homo sapiens. The class given is functional, cell-based.
Description: SANGER: Inhibition of human MHH-ES-1 cell growth in a cell viability assay.
Consider `CC1(C)CCC(c2ccc(Cl)cc2)=C(CN2CCN(c3ccc(C(=O)NS(=O)(=O)c4ccc(N[C@H](CCN5CCOCC5)CSc5ccccc5)c(S(=O)(=O)C(F)(F)F)c4)cc3)CC2)C1` [NAVITOCLAX], for which the IC50 was above 2000 nM.

The test system of the next experiment is PANC-08-13. Briefly: cells. The class given is functional, cell-based. The settings on record: Homo sapiens.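 Also: cell growth inhibition, measured with a cell viability assay.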
Description: SANGER: Inhibition of human PANC-08-13 cell growth in a cell viability assay.
The compound `CC1(C)CCC(c2ccc(Cl)cc2)=C(CN2CCN(c3ccc(C(=O)NS(=O)(=O)c4ccc(N[C@H](CCN5CCOCC5)CSc5ccccc5)c(S(=O)(=O)C(F)(F)F)c4)cc3)CC2)C1` [NAVITOCLAX] registered an IC50 above 2000 nM.

The subject of a further experiment is NCI-H460. The experiment in a line: cells. Format: functional, cell-based. The settings on record: Homo sapiens.
Description: SANGER: Inhibition of human NCI-H460 cell growth in a cell viability assay.
`CC1(C)CCC(c2ccc(Cl)cc2)=C(CN2CCN(c3ccc(C(=O)NS(=O)(=O)c4ccc(N[C@H](CCN5CCOCC5)CSc5ccccc5)c(S(=O)(=O)C(F)(F)F)c4)cc3)CC2)C1` [NAVITOCLAX] returned an IC50 above 2000 nM.

In the next experiment the test system is 8305C. The experiment in a line: cells. Format: functional, cell-based. The settings on record: Homo sapiens.
Description: SANGER: Inhibition of human 8305C cell growth in a cell viability assay.
For `CC1(C)CCC(c2ccc(Cl)cc2)=C(CN2CCN(c3ccc(C(=O)NS(=O)(=O)c4ccc(N[C@H](CCN5CCOCC5)CSc5ccccc5)c(S(=O)(=O)C(F)(F)F)c4)cc3)CC2)C1` [NAVITOCLAX], the IC50 is above 2000 nM.

In a further experiment the test system is HPAF-II. Briefly: cells. Format: functional, cell-based. To be noted: Homo sapiens.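 Also: growth inhibition of HPAF-II cells, read out with a cell viability assay.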
Description: SANGER: Inhibition of human HPAF-II cell growth in a cell viability assay.
Compound `CC1(C)CCC(c2ccc(Cl)cc2)=C(CN2CCN(c3ccc(C(=O)NS(=O)(=O)c4ccc(N[C@H](CCN5CCOCC5)CSc5ccccc5)c(S(=O)(=O)C(F)(F)F)c4)cc3)CC2)C1` [NAVITOCLAX] displayed an IC50 of 926 nM.

The subject of another experiment is BHT-101. Briefly: cells. Format: functional, cell-based. To be noted: Homo sapiens.
Description: SANGER: Inhibition of human BHT-101 cell growth in a cell viability assay.
The compound `CC1(C)CCC(c2ccc(Cl)cc2)=C(CN2CCN(c3ccc(C(=O)NS(=O)(=O)c4ccc(N[C@H](CCN5CCOCC5)CSc5ccccc5)c(S(=O)(=O)C(F)(F)F)c4)cc3)CC2)C1` [NAVITOCLAX] came in with an IC50 above 2000 nM.

Another experiment concerns U2OS. The experiment in a line: cells. Format: functional, cell-based, U-2-OS. The settings on record: Homo sapiens.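 Also: growth inhibition of human U-2-OS cells, determined with a cell viability assay.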
Description: SANGER: Inhibition of human U-2-OS cell growth in a cell viability assay.
Consider `CC1(C)CCC(c2ccc(Cl)cc2)=C(CN2CCN(c3ccc(C(=O)NS(=O)(=O)c4ccc(N[C@H](CCN5CCOCC5)CSc5ccccc5)c(S(=O)(=O)C(F)(F)F)c4)cc3)CC2)C1` [NAVITOCLAX], for which the IC50 was above 2000 nM.

The next experiment deals with NCI-H1623. Briefly: cells. The class given is functional, cell-based. To be noted: Homo sapiens.
Description: SANGER: Inhibition of human NCI-H1623 cell growth in a cell viability assay.
`CC1(C)CCC(c2ccc(Cl)cc2)=C(CN2CCN(c3ccc(C(=O)NS(=O)(=O)c4ccc(N[C@H](CCN5CCOCC5)CSc5ccccc5)c(S(=O)(=O)C(F)(F)F)c4)cc3)CC2)C1` [NAVITOCLAX] returned an IC50 above 2000 nM.

In the next experiment the test system is P12-Ichikawa. Briefly: cells. Format: functional, cell-based. To be noted: Homo sapiens.
In turn, `CC1(C)CCC(c2ccc(Cl)cc2)=C(CN2CCN(c3ccc(C(=O)NS(=O)(=O)c4ccc(N[C@H](CCN5CCOCC5)CSc5ccccc5)c(S(=O)(=O)C(F)(F)F)c4)cc3)CC2)C1` [NAVITOCLAX] had an IC50 of 77.8 nM.

The subject of the next experiment is RCM-1. The experiment in a line: cells. To be noted: Homo sapiens. The class given is functional, cell-based.
Description: SANGER: Inhibition of human RCM-1 cell growth in a cell viability assay.
As for `CC1(C)CCC(c2ccc(Cl)cc2)=C(CN2CCN(c3ccc(C(=O)NS(=O)(=O)c4ccc(N[C@H](CCN5CCOCC5)CSc5ccccc5)c(S(=O)(=O)C(F)(F)F)c4)cc3)CC2)C1` [NAVITOCLAX], the IC50 was above 2000 nM.

Another experiment relates to SCC-25. Briefly: cells. Format: functional, cell-based. To be noted: Homo sapiens.
Description: SANGER: Inhibition of human SCC-25 cell growth in a cell viability assay.
In turn, `CC1(C)CCC(c2ccc(Cl)cc2)=C(CN2CCN(c3ccc(C(=O)NS(=O)(=O)c4ccc(N[C@H](CCN5CCOCC5)CSc5ccccc5)c(S(=O)(=O)C(F)(F)F)c4)cc3)CC2)C1` [NAVITOCLAX] returned a concentration for half-maximal inhibition (IC50) above 2000 nM.

Another experiment concerns KP-4. Briefly: cells. The class given is functional, cell-based. The settings on record: Homo sapiens.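 Also: human KP-4 cells, with growth inhibition read out through a cell viability assay.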
Description: SANGER: Inhibition of human KP-4 cell growth in a cell viability assay.
In turn, `CC1(C)CCC(c2ccc(Cl)cc2)=C(CN2CCN(c3ccc(C(=O)NS(=O)(=O)c4ccc(N[C@H](CCN5CCOCC5)CSc5ccccc5)c(S(=O)(=O)C(F)(F)F)c4)cc3)CC2)C1` [NAVITOCLAX] returned an IC50 above 2000 nM.

For the next experiment, the system named is CAL-72. Briefly: cells. The class given is functional, cell-based. The settings on record: Homo sapiens.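 Also: cell viability assay measuring inhibition of proliferation in the CAL-72 cell line.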
Description: SANGER: Inhibition of human CAL-72 cell growth in a cell viability assay.
As to `CC1(C)CCC(c2ccc(Cl)cc2)=C(CN2CCN(c3ccc(C(=O)NS(=O)(=O)c4ccc(N[C@H](CCN5CCOCC5)CSc5ccccc5)c(S(=O)(=O)C(F)(F)F)c4)cc3)CC2)C1` [NAVITOCLAX], the IC50 is above 2000 nM.

The test system of another experiment is EW-22. The experiment in a line: cells. To be noted: Homo sapiens. Format: functional, cell-based.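 Also: growth inhibition of the EW-22 cell line, measured with a cell viability readout.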
Description: SANGER: Inhibition of human EW-22 cell growth in a cell viability assay.
Regarding `CC1(C)CCC(c2ccc(Cl)cc2)=C(CN2CCN(c3ccc(C(=O)NS(=O)(=O)c4ccc(N[C@H](CCN5CCOCC5)CSc5ccccc5)c(S(=O)(=O)C(F)(F)F)c4)cc3)CC2)C1` [NAVITOCLAX], half-maximal inhibition (IC50) required 467 nM. This lies in the sub-micromolar range.

The test system of a further experiment is BCPAP. Briefly: cells. The settings on record: Homo sapiens. Format: functional, cell-based.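 Also: growth inhibition of BCPAP cells, read out in a cell viability assay.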
Description: SANGER: Inhibition of human BCPAP cell growth in a cell viability assay.
`CC1(C)CCC(c2ccc(Cl)cc2)=C(CN2CCN(c3ccc(C(=O)NS(=O)(=O)c4ccc(N[C@H](CCN5CCOCC5)CSc5ccccc5)c(S(=O)(=O)C(F)(F)F)c4)cc3)CC2)C1` [NAVITOCLAX] showed an IC50 above 2000 nM.

In another experiment the test system is MeWo. The experiment in a line: cells. The class given is functional, cell-based. To be noted: Homo sapiens.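 Also: growth inhibition of MeWo cells, determined by a cell viability readout.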
Description: SANGER: Inhibition of human Mewo cell growth in a cell viability assay.
With `CC1(C)CCC(c2ccc(Cl)cc2)=C(CN2CCN(c3ccc(C(=O)NS(=O)(=O)c4ccc(N[C@H](CCN5CCOCC5)CSc5ccccc5)c(S(=O)(=O)C(F)(F)F)c4)cc3)CC2)C1` [NAVITOCLAX], the IC50 is above 2000 nM.

For another experiment, the system named is SW948. The experiment in a line: cells. Format: functional, cell-based. To be noted: Homo sapiens.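 Also: growth inhibition of SW948 cells, read out with a cell viability assay.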
Description: SANGER: Inhibition of human SW948 cell growth in a cell viability assay.
`CC1(C)CCC(c2ccc(Cl)cc2)=C(CN2CCN(c3ccc(C(=O)NS(=O)(=O)c4ccc(N[C@H](CCN5CCOCC5)CSc5ccccc5)c(S(=O)(=O)C(F)(F)F)c4)cc3)CC2)C1` [NAVITOCLAX]: the IC50 was above 2000 nM.

Another experiment relates to SK-MEL-28. Briefly: cells. The class given is functional, cell-based. To be noted: Homo sapiens.
Description: SANGER: Inhibition of human SK-MEL-28 cell growth in a cell viability assay.
Turning to `CC1(C)CCC(c2ccc(Cl)cc2)=C(CN2CCN(c3ccc(C(=O)NS(=O)(=O)c4ccc(N[C@H](CCN5CCOCC5)CSc5ccccc5)c(S(=O)(=O)C(F)(F)F)c4)cc3)CC2)C1` [NAVITOCLAX], the IC50 is above 2000 nM.

Another experiment relates to SK-MEL-30. The experiment in a line: cells. The class given is functional, cell-based. The settings on record: Homo sapiens.
Description: SANGER: Inhibition of human SK-MEL-30 cell growth in a cell viability assay.
As to `CC1(C)CCC(c2ccc(Cl)cc2)=C(CN2CCN(c3ccc(C(=O)NS(=O)(=O)c4ccc(N[C@H](CCN5CCOCC5)CSc5ccccc5)c(S(=O)(=O)C(F)(F)F)c4)cc3)CC2)C1` [NAVITOCLAX], the IC50 was above 2000 nM.

The record behind these values is ChEMBL document CHEMBL1201861, “Genomics of Drug Sensitity in Cancer screening data, Wellcome Trust Sanger Institute”.
